Measurements as given in US20230077811A1, “ACTIVATION OF NEUROPEPTIDE RECEPTORS ON PLASMACYTOID DENDRITIC CELLS TO TREAT OR PREVENT OCULAR DISEASES ASSOCIATED WITH NEOVASCULARIZATION AND INFLAMMATION” (Tufts Medical Center, Inc., priority 2020, published 2023).
Where two headings read alike, the source gives them in different places.

Assays:
splenic pDCs = test: Flow cytometry of splenic pDCs for ES and TSP-1 after 24 hours with neuropeptide receptor agonists; assay type: cell-based, C57BL/6 mice
murine pDCs = test: Flow cytometry of murine pDCs incubated with THIQ for angiostatic proteins; assay type: cell-based; settings: THIQ 10 ug/mL
human corneal pDCs = test: Flow cytometry of human corneal pDCs incubated with THIQ for angiostatic proteins; assay type: cell-based; settings: THIQ 10 ug/mL
Text: Phenotypically murine and human pDCs express divergent sets of surface markers as reviewed by Rogers et al. (Rogers et al., Am. J. Transplant. 13:1125-1133, 2013). Human pDCs express the pan leukocyte marker CD45, BDCA2 (CD303), and BDCA4 (neuropilin-1). To examine the possibility that murine but not human pDCs express angiostatic molecules, human corneal eye bank research samples for ES, PF-4, TSP-1 and TIMP3 were examined. Human corneal tissues were obtained and processed by […] Eyebank (Ann Arbor, Mich., USA) according to a standardized eye banking protocols, and procedures. […] The exclusion criterion was tissue from donors with corneal neovascularization, or a history of diabetes, cancer, or keratitis. […] Pharmacol. Toxicol. 101:416-420, 2007; Sebhat et al., J. Med. Chem. 45:4589-4593, 2002) was utilized. The ability of THIQ (10 ug/mL) to impact murine and human pDCs was tested.

[1] = system: phospho-PKCδ/θ (Ser643/676); test: Immunoblot of PKC isoform phosphorylation in FACS-sorted pDCs treated with THIQ; assay type: cell-based, murine
Procedure: Previous studies have shown the MC4 receptor to couple to all three major classes of G proteins, Gs, Gi/o, and Gq depending on cell type (Tao, Endocr. Rev. 31:506-543, 2010). To test pDC MC4 signaling, FACS-sorted pDCs were incubated with THIQ (10 ug/mL) for 5, 15, or 30 minutes. Protein kinase C (PKC) isoform phosphorylation was examined by phospho-PKC specific antibodies and immunoblotting. Specifically, Splenic pDCs were FACs sorted as previously described. Five hundred thousand pDCs were used per condition and lysed directly with chilled 1× radioimmunoprecipitation assay (RIPA) buffer or 1× Laemmli Buffer on ice. Samples were diluted in NuPAGE sample loading buffer (ThermoFisher) and 1× NuPAGE Sample Reducing Agent (ThermoFisher) and heated to 70° C. for 10 minutes. Protein lysates were resolved on a 10% Bis-Tris SDS gel (ThermoFisher) and transferred to a nitrocellulose membrane (ThermoFisher). Membranes were blocked with odyssey blocking buffer (Licor) for one hour and incubated with protein specific primary antibodies (1:100 or 1:200) overnight at 4° C. Membranes were washed with blocking buffer and secondary antibodies were diluted (1:5000 or 1:15000) and incubated with membranes for 60 minutes at room temperature. Membranes were imaged using an Odyssey® CLx Imaging System (Licor). Image analysis was done using Image Studio software. Protein sampling kits for PKC, and NF-κB signaling antibodies were purchased from Cell signaling (Phospho-PKC Antibody Sampler Kit #9921 and NF-κB Pathway Sampler Kit #9936).

suture induced CNV = test: Suture induced model of corneal neovascularization (CNV), CD31 whole mount quantification; assay type: in vivo, C57BL/6 mice
[2] = system: CNV in C57BL/6 to BALB/c corneal transplants; test: High-risk corneal transplant model (C57BL/6 to BALB/c), CNV quantified by CD31 staining; assay type: in vivo, BALB/c mice; settings: subconjunctival THIQ (10 ug/mL) every other day for 14 days, versus saline
NF-kB = test: Immunofluorescence of NF-kB (RelB, c-Rel) nuclear localization in sorted pDCs treated with THIQ; assay type: cell-based, murine; settings: THIQ 10 ug/mL, 24 hours, compared to control pDCs

Compound: COC(=O)[C@H](CCCN=C(N)N)NC(=O)CCCc1c(-c2ccccc2)[nH]c2c(F)cc(F)cc12 [L-803,087]
- pDC ES protein expression (splenic pDCs; 24 hours, compared to baseline): mixed impact
- pDC TSP-1 protein expression (splenic pDCs; 24 hours, compared to baseline): mixed impact

Compound: O=C(N[C@H](Cc1ccc(Cl)cc1)C(=O)N1CCC(Cn2cncn2)(C2CCCCC2)CC1)[C@H]1Cc2ccccc2CN1 [THIQ, (3R)—N-[(2R)-3-(4-chlorophenyl)-1-[4-cyclohexyl-4-(1,2,4-triazol-1-ylmethyl)piperidin-1-yl]-1-oxopropan-2-yl]-1,2,3,4-tetrahydroisoquinoline-3-carboxamide]
- ES mean fluorescence intensity (MFI) (murine pDCs): increased
- PF4 mean fluorescence intensity (MFI) (murine pDCs): increased
- TIMP3 mean fluorescence intensity (MFI) (murine pDCs): increased
- TSP-1 mean fluorescence intensity (MFI) (murine pDCs): increased
- ES mean fluorescence intensity (MFI) (human corneal pDCs): increased
- PF4 mean fluorescence intensity (MFI) (human corneal pDCs): increased
- TIMP3 mean fluorescence intensity (MFI) (human corneal pDCs): increased
- TSP-1 mean fluorescence intensity (MFI) (human corneal pDCs): increased
- Phosphorylation of additional PKC isoforms ([1]; THIQ 10 ug/mL, 5, 15 or 30 minutes): not observed
- PKCδ/θ (Ser643/676) phosphorylation ([1]; THIQ 10 ug/mL, 15 minutes, normalized to actin): decreased
- PKCδ/θ (Ser643/676) phosphorylation ([1]; THIQ 10 ug/mL, 30 minutes, normalized to actin): decreased
- phospho-PKCδ/θ (Ser643/676) phosphorylation ([1]; THIQ 10 ug/mL, five minutes, normalized to actin): Increased
- Reduction of suture induced CNV (suture induced CNV; subconjunctival injection of THIQ (10 ug/mL) every other day for 14 days, versus saline): 46%
- CNV, MC4 siRNA with THIQ versus control siRNA (suture induced CNV; sutured C57BL/6, injected every other day for two weeks, THIQ together with siRNA against MC4): No statistical difference
- CNV in corneal transplants [2]: reduced
- RelB nuclear localization (NF-kB): Increased
- c-Rel nuclear localization (NF-kB): not

Compound: Dynorphin A
- pDC ES protein expression (splenic pDCs): increased
- pDC TSP-1 protein expression (splenic pDCs): increased
